Experimental findings from US20130150376A1, “Novel Sultam Compounds” (PFIZER INC., priority 2010, published 2013) are described below.

The target in this test is T1, BACE1 enzyme (soluble, truncated BACE enzyme, BACE1deltaTM96His) (Homo sapiens, UniProt P56817).
T1 construct: soluble, truncated BACE enzyme (BACE1deltaTM96His); His; made in house
The experiment in a line: BACE1 Fluorescent Polarization (FP) Assay. The test is classed as biochemical. The conditions noted are these: geometric mean of 2-4 IC50 determinations unless footnoted (^2: 5-6 determinations; ^4: single determination). From the text: BACE1 Fluorescent Polarization (FP) Assay
The fluorescently tagged synthetic substrate, Biotin-GLTNIKTEEISEISŶEVEFR-C[oregon green]KK-OH can be efficiently cleaved by the beta-secretase enzyme and is therefore useful to assay beta-secretase activity in the presence or absence of inhibitory compounds. The his tagged BACE1 enzyme was affinity purified material from conditioned media of CHO-K1 cells that had been transfected to express soluble, truncated BACE enzyme (BACE1deltaTM96His). Compounds were incubated in a ½ log dose response (from a top concentration of 100 μM) with BACE1 enzyme (0.1 nM final) and the biotinylated fluorescent peptide substrate (150 nM final) in assay buffer containing 100 mM sodium acetate, pH 4.5 (brought to pH with acetic acid), and 0.001% Tween-20. Total reaction volumes of 30 μL were carried out in 384-well black plates (Thermo Scientific 4318). Plates were covered and incubated for 3 hours at 37° C. The reactions were then stopped by addition of 30 μL of 1.5 μM Streptavidin (Pierce, 21125). After a 10 minute incubation at room temperature, plates were read on a PerkinElmer Envision for fluorescence polarization (Ex485 nm/Em530 nm). The activity of the beta-secretase enzyme is detected by changes in the fluorescence polarization (Δ mP) that occur when the substrate is cleaved by the enzyme.

The mark [1] stands for this setting: 11-point curve, read-out: BACE activity, 11-point curve, IC50.
[2] abbreviates: 8-point curve, read-out: BACE activity, 8-point curve, IC50.

Structures can show the parent of a compound that is named as a salt. Where two headings read alike, the source gives them in different places.

T1 sequence (P56817 46-457): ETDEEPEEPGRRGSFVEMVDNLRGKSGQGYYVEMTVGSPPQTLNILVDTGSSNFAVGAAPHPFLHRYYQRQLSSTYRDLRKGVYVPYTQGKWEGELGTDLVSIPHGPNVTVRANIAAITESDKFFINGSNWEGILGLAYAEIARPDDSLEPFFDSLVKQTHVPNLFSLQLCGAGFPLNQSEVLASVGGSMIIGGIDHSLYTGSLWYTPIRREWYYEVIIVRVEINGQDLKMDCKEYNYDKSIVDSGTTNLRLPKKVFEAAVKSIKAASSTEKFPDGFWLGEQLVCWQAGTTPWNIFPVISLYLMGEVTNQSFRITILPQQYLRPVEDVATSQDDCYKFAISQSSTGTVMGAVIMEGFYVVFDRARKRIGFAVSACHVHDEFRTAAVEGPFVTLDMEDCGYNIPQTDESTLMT

What is called IC50 is the concentration needed to halve the response being measured. `C[C@H]1C[C@@]2(C=CS(=O)(=O)N2c2cccc(F)c2)CCN1Cc1ncoc1-c1cccs1` [Example 34, (5R,7S)-1-(3-fluorophenyl)-7-methyl-8-{[5-(2-thienyl)-1,3-oxazol-4-yl]methyl}-2-thia-1,8-diazaspiro[4.5]dec-3-ene 2,2-dioxide, hydrochloride salt]: under setting [1], the IC50 is 5.89 µM. Same read-out and setting: next, `C[C@H]1C[C@]2(CCN1Cc1ccc(O)c(C3CCC3)c1)CCS(=O)(=O)N2c1ccccn1` [Example 92, 2-cyclobutyl-4-{[(5R,7S)-7-methyl-2,2-dioxido-1-(pyridin-2-yl)-2-thia-1,8-diazaspiro[4.5]dec-8-yl]methyl}phenol]: 4.19 µM; `Cc1cccnc1-c1cccc(CN2CC[C@]3(C=CS(=O)(=O)N3c3cccc(F)c3)C[C@@H]2C)c1` [Example 77, (5R,7S)-1-(3-fluorophenyl)-7-methyl-8-[3-(3-methylpyridin-2-yl)benzyl]-2-thia-1,8-diazaspiro[4.5]dec-3-ene 2,2-dioxide, trifluoroacetic acid salt]: 0.927 µM; `Cc1scnc1-c1cc(CN2CC[C@@]3(C[C@@H]2C)C(=O)CS(=O)(=O)N3c2cccc(F)c2)ccc1O` [Example 83, (5R,7S)-1-(3-fluorophenyl)-8-[4-hydroxy-3-(5-methyl-1,3-thiazol-4-yl)benzyl]-7-methyl-2-thia-1,8-diazaspiro[4.5]decan-4-one 2,2-dioxide]: 0.24 µM. On to `Cc1csnc1-c1cc(CN2CC[C@@]3(C[C@@H]2C)C(=O)CS(=O)(=O)N3c2cccc(F)c2)ccc1O` [Example 82, (5R,7S)-1-(3-fluorophenyl)-8-[4-hydroxy-3-(4-methylisothiazol-3-yl)benzyl]-7-methyl-2-thia-1,8-diazaspiro[4.5]decan-4-one 2,2-dioxide], for which, under setting [1], the half-maximal inhibitory concentration (IC50) was 0.0209 µM. Consider `COC1=CS(=O)(=O)N(c2cccc(F)c2)[C@@]12CCN(Cc1cccc(OC(C)C)c1)[C@@H](C)C2` [Example 63, (5R,7S)-1-(3-fluorophenyl)-8-(3-isopropoxybenzyl)-4-methoxy-7-methyl-2-thia-1,8-diazaspiro[4.5]dec-3-ene 2,2-dioxide], for which the concentration for half-maximal inhibition (IC50) under setting [2] is 5.82 µM.

As for `Cc1csnc1-c1cc(CN2CC[C@]3(C=CS(=O)(=O)N3c3cccc(F)c3)C[C@@H]2C)ccc1O` [Example 72, 4-{[(5R,7S)-1-(3-fluorophenyl)-7-methyl-2,2-dioxido-2-thia-1,8-diazaspiro[4.5]dec-3-en-8-yl]methyl}-2-(4-methyl-1,2-thiazol-3-yl)phenol, trifluoroacetic acid salt], the IC50 was 0.00097 µM under setting [2] and 0.0243 µM under setting [1].

On to `Cc1ccsc1-c1ocnc1CN1CC[C@]2(CCS(=O)(=O)N2c2cccc(F)c2)C[C@@H]1C` [Example 58, (5R,7S)-1-(3-fluorophenyl)-7-methyl-8-{[5-(3-methyl-2-thienyl)-1,3-oxazol-4-yl]methyl}-2-thia-1,8-diazaspiro[4.5]decane 2,2-dioxide, hydrochloride salt], for which the IC50 under setting [1] turned out to be 6.53 µM. Turning to `Cc1ccncc1-c1cccc(CN2CC[C@]3(C=CS(=O)(=O)N3c3cccc(F)c3)C[C@@H]2C)c1` [Example 39, (5R,7S)-1-(3-fluorophenyl)-7-methyl-8-[3-(4-methylpyridin-3-yl)benzyl]-2-thia-1,8-diazaspiro[4.5]dec-3-ene 2,2-dioxide, hydrochloride salt], the IC50 is, setting by setting: under setting [2], 0.0795 µM; under setting [1], 0.414 µM. As for `CC(C)Oc1cc(CN2CC[C@]3(C=CS(=O)(=O)N3c3cccc(F)c3)C[C@@H]2C)ccc1O` [Example 9, 4-{[(5R,7S)-1-(3-ftuorophenyl)-7-methyl-2,2-dioxido-2-thia-1,8-diazaspiro[4.5]dec-3-en-8-yl]methyl}-2-isopropoxyphenol], the half-inhibitory concentration (IC50) reads like this: under setting [2], 0.0235 µM; under setting [1], 0.0779 µM.

With `C[C@H]1C[C@@]2(C=CS(=O)(=O)N2c2cccc(F)c2)CCN1Cc1ccc2[nH]ccc2c1` [Example 41, (5R,7S)-1-(3-fluorophenyl)-8-(1H-indol-5-ylmethyl)-7-methyl-2-thia-1,8-diazaspiro[4.5]dec-3-ene 2,2-dioxide], the concentration for half-maximal inhibition (IC50) worked out at 0.703 µM under setting [2] and 2.38 µM under setting [1]. The like results for `CC(C)Oc1cc(CN2CC[C@]3(C=CS(=O)(=O)N3c3ccc(F)c(F)c3)C[C@@H]2C)ccc1O` [Example 67, 4-{[(5R,7S)-1-(3,4-difluorophenyl)-7-methyl-2,2-dioxido-2-thia-1,8-diazaspiro[4.5]dec-3-en-8-yl]methyl}-2-isopropoxyphenol] were, in that order, 0.0593 µM and 0.429 µM. The like results for `C[C@H]1C[C@@]2(C=CS(=O)(=O)N2c2cccc(F)c2)CCN1Cc1ncoc1-c1cncc(F)c1` [Example 40, (5R,7S)-1-(3-fluorophenyl)-8-{[5-(5-fluoropyridin-3-yl)-1,3-oxazol-4-yl]methyl}-7-methyl-2-thia-1,8-diazaspiro[4.5]dec-3-ene 2,2-dioxide, hydrochloride salt] were, in that order, 1.38 µM and 2.38 µM.

As to `C[C@H]1C[C@@]2(C=CS(=O)(=O)N2c2cccc(F)c2)CCN1Cc1ncoc1-c1cccnc1` [Example 22, (5R,7S)-1-(3-fluorophenyl)-7-methyl-8-[(5-pyridin-3-yl-1,3-oxazol-4-yl)methyl]-2-thia-1,8-diazaspiro[4.5]dec-3-ene 2,2-dioxide, hydrochloride salt], the half-inhibitory concentration (IC50) under setting [2] was found to be 0.414 µM. As for `Cc1cccnc1-c1cc(CN2CC[C@]3(C=CS(=O)(=O)N3c3cccc(F)c3)C[C@@H]2C)ccc1F` [Example 78, (5R,7S)-8-[4-fluoro-3-(3-methylpyridin-2-yl)benzyl]-1-(3-fluorophenyl)-7-methyl-thia-1,8-diazaspiro[4.5]dec-3-ene 2,2-dioxide], the concentration for half-maximal inhibition (IC50) under setting [1] was determined as 5.65 µM. Consider `Cc1ccncc1-c1ncsc1CN1CC[C@]2(C=CS(=O)(=O)N2c2cccc(F)c2)C[C@@H]1C` [Example 50, (5R,7S)-1-(3-fluorophenyl)-7-methyl-8-{[4-(4-methylpyridin-3-yl)-1,3-thiazol-5-yl]methyl}-2-thia-1,8-diazaspiro[4.5]dec-3-ene 2,2-dioxide, hydrochloride salt], for which the concentration for half-maximal inhibition (IC50) runs as follows: under setting [2], 7.18 µM; under setting [1], 25.6 µM. The like results for `C[C@H]1C[C@@]2(C=CS(=O)(=O)N2c2cccc(F)c2)CCN1Cc1scnc1-c1cncnc1` [Example 43, (5R,7S)-1-(3-fluorophenyl)-7-methyl-8-[(4-pyrimidin-5-yl-1,3-thiazol-5-yl)methyl]-2-thia-1,8-diazaspiro[4.5]dec-3-ene 2,2-dioxide] were, in that order, 0.975 µM and 8.25 µM. Regarding `C[C@H]1C[C@@]2(C=CS(=O)(=O)N2c2cccc(F)c2)CCN1Cc1ccc(O)c(OC2CC2)c1` [Example 13, 2-(cyclopropyloxy)-4-{[(5R,7S)-1-(3-fluorophenyl)-7-methyl-2,2-dioxido-2-thia-1,8-diazaspiro[4.5]dec-3-en-8-yl]methyl}phenol, hydrochloride salt], the IC50 under setting [2] is 0.0184 µM. Turning to `Cc1ccccc1-c1cc(CN2CC[C@]3(CCS(=O)(=O)N3c3cccc(F)c3)C[C@@H]2C)ccc1O` [Example 62, 5-{[(5R,7S)-1-(3-fluorophenyl)-7-methyl-2,2-dioxido-2-thia-1,8-diazaspiro[4.5]dec-8-yl]methyl-2′-methylbiphenyl-2-ol, hydrochloride salt], the IC50 under setting [2] amounted to 0.019 µM and the IC50 under setting [1] was 0.0333 µM. The like results for `C[C@H]1C[C@@]2(C=CS(=O)(=O)N2c2cccc(F)c2)CCN1Cc1ccc(O)c(C2CCCO2)c1` (single isomer, unassigned) [Example 31] were, in that order, 0.0105 µM and 0.0626 µM.

Regarding `C[C@H]1C[C@]2(CCN1Cc1ccc3[nH]ccc3c1)CCS(=O)(=O)N2c1cccc(F)c1` [Example 51, (5R,7S)-1-(3-fluorophenyl)-8-(1H-indol-5-ylmethyl)-7-methyl-2-thia-1,8-diazaspiro[4.5]decane 2,2-dioxide], the IC50 reads like this: under setting [2], 2.08 µM; under setting [1], 5.64 µM.

`Cc1ncsc1-c1ocnc1CN1CC[C@]2(CCS(=O)(=O)N2c2cccc(F)c2)C[C@@H]1C` [Example 59, (5R,7S)-1-(3-fluorophenyl)-7-methyl-8-{[5-(4-methyl-1,3-thiazol-5-yl)-1,3-oxazol-4-yt]methyl}-2-thia-1,8-diazaspiro[4.5]decane 2,2-dioxide, hydrochloride salt]: under setting [1], the concentration for half-maximal inhibition (IC50) was 8.82 µM. Consider `C[C@H]1C[C@]2(CCN1Cc1ccc(O)c(C3CCCO3)c1)CCS(=O)(=O)N2c1cccc(F)c1` (single isomer, unassigned) [Example 47], for which the IC50 reads like this: under setting [2], 0.0471 µM; under setting [1], 0.249 µM. As for `CC(C)Oc1cc(CN2CC[C@]3(CCS(=O)(=O)N3c3cccc(F)c3)C[C@@H]2C)ccc1O` [Example 1, 4-{[(5R,7S)-1-(3-Fluorophenyl)-7-methyl-2,2-dioxido-2-thia-1,8-diazaspiro[4.5]dec-8-yl]methyl}-2-isopropoxyphenol], under setting [2], the IC50 came to 0.035 µM.
